From PubChem BioAssay AID2765 (Broad Institute, 2010) come the findings set out here.

Activity calls are given as the source filed them.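 Rule for the calls: active = half-maximal concentration for the rise in caspase light signal at or below ten times the top tested dose; inconclusive = flat fit between 30% and 70% activity, or unreliable curve fit; inactive = the rest.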

This assay relates to MEF A1-2A-BIM cells, caspase 3/7 luminescence, 3 h. The experiment in a line: caspase activation in A1-2A-BIM MEF cells, dose response, A1 inhibitor project, cell-based, luminescence, retest (AID 2765).
A word on the EC50: it is the concentration at which the effect is half-maximal. As for `COC(=O)C1=C(C)N(Cc2ccccc2)C(=NCc2cc(OC)c(OC)c(OC)c2)N[C@H]1c1ccccc1`, the EC50 was > 35 µM (inactive). In the case of `COc1ccc(S(=O)(=O)N2CC(O)CC2C(=O)OCC(=O)Nc2ccc(Cl)cn2)cc1` (configuration not stated), the EC50 is > 35 µM (inactive).

In the case of `COc1ccc(N/C(=N/c2nc(C)cc(C)n2)NC(=O)Nc2ccc(Cl)c(Cl)c2)c(OC)c1`, the EC50 was > 35 µM (inactive). On to `O=C(NCCc1ccccc1)C(c1cccs1)N(C(=O)CCl)c1ccc(Cl)cc1` (configuration not stated), for which the EC50 is 7.95 µM. On to `COc1ccccc1CCNC(C)CCc1ccc(O)cc1` (configuration not stated), for which the EC50 was > 35 µM (inactive). Regarding `COc1ccc(C(=O)NCc2nnc(SCC(=O)NCc3ccco3)o2)cc1OC`, the EC50 was > 35 µM (inactive). As for `Cc1c(C)c(C)c(C(=O)CCc2cccc(NC(=O)CCC(=O)O)c2)c(C)c1C`, the EC50 is > 35 µM (inactive). Under `CC1CC(C)CN(C(=O)CCCn2c(=S)[nH]c3ccccc3c2=O)C1` (configuration not stated) stands > 35 µM (inactive).

For the compound `NC(=NCCCCCCN=C(N)/N=C(\N)Nc1ccc(Cl)cc1)/N=C(\N)Nc1ccc(Cl)cc1`, the EC50 is > 35 µM (inactive). In the case of `O=C(N/N=C\c1cccc(Cl)c1)c1ccc(Cn2cccn2)o1`, the EC50 was > 35 µM (inactive). Turning to `O=C(Nc1ccc(Br)cc1C(=O)O)c1ccc2c(c1)C(=O)N(Cc1ccccc1)C2=O`, the EC50 was > 35 µM (inactive). Under `CC1(C)OC(=O)C(=Cc2ccc(-c3ccc(S(N)(=O)=O)cc3)o2)C(=O)O1` stands > 35 µM (inactive). The figure for `CCOC(=O)CSCC(=O)N1N=C(c2cccs2)CC1c1ccc(F)cc1` (configuration not stated) is > 35 µM (inactive). Under `O=C(Cc1ccccc1)N1CCc2[nH]nc(-c3ccccc3)c2C1` stands > 35 µM (inactive); under `Cc1c(Cl)cccc1NC(=O)[C@@]1(CC(=O)O)CC(/C=C/c2ccccc2)=NO1`, > 35 µM (inactive); under `Cn1cnc([N+](=O)[O-])c1S(=O)(=O)c1cccc(Cl)c1`, > 35 µM (inactive). Take `O=C(Nc1ccc2oc(-c3ccccc3)nc2c1)c1ccccc1F`: the EC50 was > 35 µM (inactive). The figure for `O=C1ON=C(c2ccc(Cl)cc2)/C1=C/c1ccc(O)cc1` is > 35 µM (inactive); for `CCOC(=O)CSC1=N/C(=C/c2ccc(-n3cncn3)cc2)C(=O)N1C(C)=O` it is 25.6 µM.

For `C[C@@H]1CN([C@@H](C)CO)C(=O)c2cc(NS(=O)(=O)c3ccc(Cl)cc3)ccc2O[C@H]1CN(C)Cc1ccncc1`, the EC50 was > 35 µM (inactive). The figure for `CC(C)CN(C(=O)C1CSC2(C)CCC(=O)N12)c1c(N)n(Cc2ccccc2)c(=O)[nH]c1=O` (configuration not stated) is > 35 µM (inactive); for `CCN(CC)CCCN=C(C)c1c(O)n(-c2ccc(C)cc2)c(=O)[nH]c1=O` it is > 35 µM (inactive).

`COC(=O)Cn1cc(C(=O)C2CC2)c2ccccc21`: the EC50 is > 35 µM (inactive). Turning to `CCN(CC)CCCN=C(C)c1c(O)n(-c2ccccc2)c(=O)[nH]c1=O`, the EC50 was > 35 µM (inactive). The figure for `CCS(=O)(=O)c1ncc(Cl)c(C(=O)Nc2ccc(S(=O)(=O)N3CCCC(C)C3)cc2)n1` (configuration not stated) is > 35 µM (inactive); for `O=C(NCCOC(=O)c1ccc(Cl)c(S(=O)(=O)N2CCCCC2)c1)c1ccncc1` it is > 35 µM (inactive). Under `N#C/C(=C\c1ccc(N2CCOCC2)o1)c1ccccc1` stands > 35 µM (inactive). The figure for `C/C(=N\NC(=O)CCC(=O)NCc1ccccc1)c1ccco1` is > 35 µM (inactive); for `O=C(NCc1ccccc1Br)c1cccc2c1C(=O)c1ccc(-c3ccc(OC(F)(F)F)cc3)cc1S2(=O)=O` it is > 35 µM (inactive). In the case of `CC1Cc2ccccc2N1C(=O)C1CCN(S(=O)(=O)Cc2ccccc2)CC1` (configuration not stated), the EC50 was > 35 µM (inactive).

Consider `O=C(COC(=O)/C=C/c1cccc(Cl)c1Cl)Nc1ccc2[nH]c(=O)[nH]c2c1`, for which the EC50 is > 35 µM (inactive). As for `COc1ccc(C[C@H]2NC[C@H](O)[C@H]2OC(C)=O)cc1`, the EC50 was > 35 µM (inactive). The figure for `CCN(C(=O)CCN1C(=O)c2ccccc2S1(=O)=O)c1ccccc1` is > 35 µM (inactive); for `COCCCNC(=O)c1cccc(S(=O)(=O)N2CC3(C)CC2CC(C)(C)C3)c1` (configuration not stated) it is > 35 µM (inactive). Consider `CCCCNC(=O)c1ccc2nc(-c3ccco3)c(-c3ccco3)nc2c1`, for which the EC50 is > 35 µM (inactive). Under `Cc1cc(C)cc(C(=O)N2CC(=O)Nc3ccccc32)c1` stands > 35 µM (inactive); under `O=C(NC1CCCCC1)c1cccc2c1C(=O)c1ccc(-c3ccc(OC(F)(F)F)cc3)cc1S2(=O)=O`, 27.5 µM; under `CN1C(=O)[C@H]2[C@@H](C3CC3)N3C(=O)CN(Cc4ccc(-c5ccccc5)cc4)C(=O)[C@@]3(C)[C@H]2C1=O`, > 35 µM (inactive). As for `COCC(=O)NC(C)c1nc2ccccc2[nH]1` (configuration not stated), the EC50 was > 35 µM (inactive). Consider `COc1ccc(NC(=O)/C=C/C(=O)O)c([N+](=O)[O-])c1`, for which the EC50 is > 35 µM (inactive). Under `COc1ccc(NC(=O)c2oc3ccccc3c2NC(=O)C2CC2)cc1` stands > 35 µM (inactive).

Turning to `CN(c1ccccc1)c1ccc(/C=C/[N+](=O)[O-])cc1`, the EC50 is 12.6 µM. Regarding `CCOc1nc(NCCO)nc(NCCC2=CCCCC2)n1`, the EC50 is > 35 µM (inactive). Under `CCc1cccc(NC(=O)C2CCN(S(=O)(=O)c3ccc4c(c3)NC(=O)CO4)CC2)c1` stands > 35 µM (inactive).

Regarding `Cc1ccc(OCCC(=O)Nc2ccc(C)c(F)c2)cc1`, the EC50 was > 35 µM (inactive). Under `c1ccc2c(CNc3ccc(CNc4ncn[nH]4)cc3)cccc2c1` stands > 35 µM (inactive); under `O=C1Nc2ncccc2OC1CCO` (configuration not stated), > 35 µM (inactive); under `C=C1/C=C(\C)[C@](C)(O)C[C@H](O)CC(=O)[C@H](O)[C@@H](O)[C@H](C)C[C@H](C)OC(=O)/C(C)=C/CC/C=C/[C@@H]2O[C@H]2C[C@H](C)C1`, > 35 µM (inactive). As for `Oc1ccc(/C=N/N2CCN(C3c4ccccc4-c4ccccc43)CC2)cc1O`, the EC50 is > 35 µM (inactive).

Take `Cc1ccc(C)c(NC(=O)COC(=O)c2cc3ccccc3oc2=O)c1`: the EC50 is > 35 µM (inactive).

As for `Cc1ccc(NC(=O)CSc2nc3nc(C)c(Br)cc3[nH]2)cc1F`, the EC50 was > 35 µM (inactive).

As for `C=CCn1c(SCC(=O)NC23CC4CC(CC(C4)C2)C3)nc(O)cc1=O`, the EC50 is > 35 µM (inactive). The figure for `O=Cc1cccc(OC(=O)c2ccc(Cl)cc2Cl)c1` is > 35 µM (inactive); for `Cc1ccc(C)c(N(C(=O)CCC(=O)Nc2cc(C)on2)C(C(=O)NC2CCCC2)c2ccco2)c1` (configuration not stated) it is > 35 µM (inactive); for `CC1CCN(CCCNC(=O)c2cn(C)c3ccc(S(=O)(=O)N4CCCC4)cc3c2=O)CC1` it is > 35 µM (inactive). For the compound `CC(C)(C)C1CCc2onc(C(=O)Nc3cccc(O)c3)c2C1` (configuration not stated), the EC50 was > 35 µM (inactive). For the compound `O=C(NCc1ccccc1)c1cncc(Br)c1`, the EC50 was > 35 µM (inactive). Consider `Cc1cccc(Nc2nc(N)c([N+](=O)[O-])c(N3CCCC(C)C3)n2)c1` (configuration not stated), for which the EC50 was > 35 µM (inactive). As to `COCc1cccc(NC(=O)CCc2ccccc2)c1`, the EC50 is > 35 µM (inactive). Under `CCOC(=O)N1CCN(C(=O)c2ccc3nc(N4CCC(C)CC4)sc3c2)CC1` stands > 35 µM (inactive); under `CN(Cc1cnc2nc(N)nc(N)c2n1)c1ccc(C(=O)N[C@@H](CCC(=O)O)C(=O)O)cc1`, > 35 µM (inactive). For the compound `CCOC(=O)c1[nH]c2ccccc2c1NC(=S)Nc1cc(C)ccc1C`, the EC50 is > 35 µM (inactive). On to `Cc1ccc(C)c(NC(=O)CN(C)C(=O)c2ccc(-c3cccc(C(F)(F)F)c3)o2)c1`, for which the EC50 is > 35 µM (inactive). Consider `O=C(C1=C[C@H](c2coc3ccccc3c2=O)C[C@H](OCc2ccc(CO)cc2)O1)N1CCN(Cc2ccccc2)CC1`, for which the EC50 was > 35 µM (inactive). Under `CCN(CC)c1ncnc2c1cnn2Cc1ccc(Cl)cc1` stands > 35 µM (inactive); under `Cc1cc(=O)oc2c1c(C)nn2-c1ccc(Cl)cc1`, > 35 µM (inactive).

Turning to `Cc1ccc(Sc2ncccc2C(=O)NCc2cc([N+](=O)[O-])ccc2O)cc1C`, the EC50 is > 35 µM (inactive). For the compound `CCOC(=O)C(NC(=O)c1ccc(OC)cc1)(N1CCCC1=O)C(F)(F)F` (configuration not stated), the EC50 was > 35 µM (inactive).

As for `CO/N=C/C(C#N)=C/c1cc(C(=O)c2ccccc2)cn1C`, the EC50 is > 35 µM (inactive). The figure for `CC(C)(C)NC(=O)NC(=O)COC(=O)CNS(=O)(=O)/C=C/c1ccccc1` is > 35 µM (inactive); for `Cc1cccc(N(C)C(=O)CCS(=O)(=O)c2cccc3nonc23)c1` it is > 35 µM (inactive); for `Cc1sc(NC(=O)CSC2=NCCS2)nc1-c1ccccc1` it is > 35 µM (inactive).

With `COc1ccc(NC(=O)/C(Cl)=C(/Cl)S(=O)Cc2ccc(C)cc2)cn1` (configuration not stated), the EC50 is > 35 µM (inactive). Under `COCCN(C(=O)CSc1nc2ccccc2c(=O)n1C(C)COC)c1c(N)n(Cc2ccccc2)c(=O)[nH]c1=O` (configuration not stated) stands > 35 µM (inactive). Regarding `O=C(Oc1cccc(/C=N/Nc2nc(Nc3ccccc3)nc(N3CCOCC3)n2)c1)c1ccco1`, the EC50 was > 35 µM (inactive). In the case of `CC(C)c1ccc(NC(=S)NNC(=O)c2cccs2)cc1`, the EC50 was > 35 µM (inactive). For the compound `Cc1ccc(NC(=S)N(CCCN2CCCC2)Cc2cccn2Cc2ccc(Cl)cc2)cc1Cl`, the EC50 is > 35 µM (inactive). For the compound `Cc1ccc(S(=O)(=O)N2CCCC2)cc1C(=O)NCc1ccccc1CN1CCCC1`, the EC50 is > 35 µM (inactive). On to `COCCNC(=S)N(CCc1c(C)[nH]c2ccccc12)Cc1cccnc1`, for which the EC50 is > 35 µM (inactive). For the compound `CCc1ccc(NC(=O)c2nc(S(=O)(=O)Cc3ccccc3)ncc2Cl)cc1`, the EC50 is > 35 µM (inactive).

As to `COc1cc(NS(=O)(=O)c2cc(C(=O)NCCc3ccccn3)ccc2OC)cc(OC)c1`, the EC50 was > 35 µM (inactive).

Turning to `CCOc1ccc2nc(NCCNC(=O)Nc3cccc(C)c3)c(C#N)cc2c1`, the EC50 is 35.7 µM.
